We go through eight compounds from patent US20230331737A1, “MTORC1 MODULATORS AND USES THEREOF” (Aeovian Pharmaceuticals, Inc., priority 2020, published 2023).

One test addresses FKBP12 (Homo sapiens, UniProt P62942). Kind of test: SPR assay to determine binding affinity to FKBP12 (direct binding). Particulars: immobilized biotinylated avi-FKBP12, single-cycle kinetics. On the procedure: SPR Assay to Determine Binding Affinity to FKBP12.
Biotinylated avi-FKBP12 was immobilized on a streptavidin chip (Cytiva Series S SA) using a Biacore 8K or 8k+ (Cytiva). […] Test compounds described in Table 11 were diluted in DMSO to 100× working concentration. Each test compound was 100-fold diluted in 50 mM HEPES pH 7.5, 150 mM NaCl, 2 mM MgCl2, 1 mM DTT, 0.05% Tween-20 and a serial dilution prepared (9 concentrations, 3-fold dilutions, 0.08-500 nM). […] The compound dilutions were then injected at 100 uL/min for 120 seconds contact time in sequence with increasing concentrations. Dissociation was monitored for 3600 seconds. 50 mM HEPES pH 7.5, 150 mM NaCl, 2 mM MgCl2, 1 mM DTT, 0.05% Tween-20, 1% DMSO was used as running buffer. The single-cycle kinetics data were fit to a 1:1 binding model to measure the association rate ka (1/Ms), the dissociation rate kd (1/s) and the affinity Kd (M).
Background: SPR reads the build-up and loss of mass on a sensor chip optically.

For test [1], the target named is FKBP12 ternary complex with FRB (Homo sapiens, UniProt P42345+P62942). Kind of test: SPR assay to characterize ternary complex formation with FKBP12 (FRB injected over compound-saturated FKBP12). Type of test: binding. The conditions noted are these: FRB dilutions with 100 nM test compound over immobilized FKBP12. On the procedure: Biotinylated avi-FKBP12 was immobilized on a streptavidin chip (Cytiva Series S SA) using a Biacore 8K or 8k+ (Cytiva). To achieve an immobilization level of 100 RU, 0.3 μg/ml biotinylated avi-FKBP12 were injected for 80 sec at a flow rate of 10 μl/min. Serial dilution of FRB was prepared (12 concentrations, 3-fold dilutions, 0.00011-20 μM) and supplemented with 100 nM of a test compound. A-B-A injection mode was used to ensure saturation immobilized FKBP12 with respective test compound. 100 nM solution of the respective test compound was injected before FRB injection for 120 sec and during dissociation for 420 sec. The FRB dilutions were then injected 120 seconds contact time with increasing concentrations. Rapamycin was used as reference sample. 50 mM HEPES pH 7.5, 150 mM NaCl, 2 mM MgCl2, 1 mM DTT, 0.05% Tween-20, 1% DMSO was used as running buffer at a flow rate of 30 μl/min. The multi-cycle kinetics data were fit to a 1:1 binding model to measure the association rate ka (1/Ms), the dissociation rate kd (1/s) and the affinity Kd (M). In case of fast association and dissociation, steady state affinity analysis following the law of mass action was used to determine the affinity Kd (M).

A further test deals with T1, mTORC1 (Homo sapiens, UniProt P42345+P62942).
T1 construct: endogenous in cells; host or cells: PC-3 cells
Kind of test: mTORC1 inhibition in PC-3 cells, AlphaLISA of p70S6K pT389 levels. The class given is cell-based. The conditions noted are these: mTORC1 as measured by inhibition of p70S6K pT389 levels, read-out: mTROC1 IC50. The method, then: mTORC1 inhibition was determined via analysis of phosphorylation levels of Phospho-p70 S6 kinase (p70S6K pT389) and Phospho-S6 Ribosomal Protein (pRPS6 pS240/pS244) with the corresponding AlphaLISA kits (PerkinElmer Alpha SF Ultra™ Multiplex phospho (Thr389)/total p70 S6K Assay Kit (Eu/Tb) and AlphaLISA SF Ultra™ p-Ribosomal Protein S6 (Ser240/244) Assay Kit).
%−activity=100*((Sample−Low control)/(High control−Low control))

The structures appear in SMILES notation.

Chain of FKBP12 (P62942 whole entry, species assumed): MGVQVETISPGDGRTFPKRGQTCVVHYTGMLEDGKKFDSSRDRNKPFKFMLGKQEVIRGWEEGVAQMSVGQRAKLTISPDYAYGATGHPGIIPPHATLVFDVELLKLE

As usually defined, the Kd is the free concentration of one partner at which half of the binding sites on the other are occupied at equilibrium, for simple one-to-one binding. Low values mean higher affinity, high ones lower affinity. Usually IC50 stands for the midpoint of a concentration-inhibition curve. For the compound `COCCO[C@H]1C[C@@H]2CC[C@@H](C)[C@@](O)(O2)C(=O)C(=O)N2CCCCC2C(=O)O[C@H]([C@H](C)C[C@@H]2CC[C@@H](OCCCN3CCN(C)CC3)[C@H](OC)C2)CC(=O)[C@H](C)/C=C(\C)[C@@H](O)[C@@H](OC)C(=O)[C@H](C)C[C@H](C)/C=C/C=C/C=C/1C` (relative stereo) [Compound 431, (1R,9S,12S,15R,16E,18R,19R,21R,23S,24E,26E,28E,30S*,32S,35R)-1,18-dihydroxy-19-methoxy-30-(2-methoxyethoxy)-12-[(1R)-2-[(1S,3R,4R)-3-methoxy-4-[3-(4-methylpiperazin-1-yl)propoxy]cyclohexyl]-1-methyl-ethyl]-15,17,21,23,29,35-hexamethyl-11,36-dioxa-4-azatricyclo[30.3.1.0^4,9]hexatriaconta-16,24,26,28-tetraene-2,3,10,14,20-pentone], the Kd on FKBP12 is 0.3 to 1 nM; in test [1], under 500 nM. Also, at mTORC1, the IC50 is under 0.8 nM.

For `CO[C@@H]1C[C@H](C[C@@H](C)[C@@H]2CC(=O)[C@H](C)/C=C(\C)[C@@H](O)[C@@H](OC)C(=O)[C@H](C)C[C@H](C)/C=C/C=C/C=C(\C)[C@H](OCCOCCO)C[C@@H]3CC[C@@H](C)[C@@](O)(O3)C(=O)C(=O)N3CCCC[C@H]3C(=O)O2)CC[C@H]1O` [Compound 125, (1R,9S,12S,15R,16E,18R,19R,21R,23S,24E,26E,28E,30R,32S,35R)-1,18-dihydroxy-30-[2-(2-hydroxyethoxy)ethoxy]-12-[(1R)-2-[(1S,3R,4R)-4-hydroxy-3-methoxy-cyclohexyl]-1-methyl-ethyl]-19-methoxy-15,17,21,23,29,35-hexamethyl-11,36-dioxa-4-azatricyclo[30.3.1.04,9]hexatriaconta-16,24,26,28-tetraene-2,3,10,14,20-pentone], the Kd is under 0.3 nM at FKBP12 and over 1100 nM in test [1]. Further, at mTORC1, the IC50 lay within 0.8 to 1.5 nM.

For `CO[C@@H]1C[C@H](C[C@@H](C)[C@@H]2CC(=O)[C@H](C)/C=C(\C)[C@@H](O)[C@@H](OC)C(=O)[C@H](C)C[C@H](C)/C=C/C=C/C=C(\C)[C@H](OC3CC3)C[C@@H]3CC[C@@H](C)[C@@](O)(O3)C(=O)C(=O)N3CCCC[C@H]3C(=O)O2)CC[C@H]1OCCO` [Compound 128, (1R,9S,12S,15R,16E,18R,19R,21R,23S,24E,26E,28E,30R,32S,35R)-30-(cyclopropoxy)-1,18-dihydroxy-12-[(1R)-2-[(1S,3R,4R)-4-(2-hydroxyethoxy)-3-methoxy-cyclohexyl]-1-methyl-ethyl]-19-methoxy-15,17,21,23,29,35-hexamethyl-11,36-dioxa-4-azatricyclo[30.3.1.04,9]hexatriaconta-16,24,26,28-tetraene-2,3,10,14,20-pentone], the Kd at FKBP12 is over 1 nM; in test [1], under 500 nM. In addition, the half-inhibitory concentration (IC50) on mTORC1 lay in the range of 0.8 to 1.5 nM.

Take `COCCO[C@@H]1C[C@@H]2CC[C@@H](C)[C@@](O)(O2)C(=O)C(=O)N2CCCC[C@H]2C(=O)O[C@H]([C@H](C)C[C@@H]2CC[C@@H](OCCCN3CCN(C)CC3)[C@H](OC)C2)CC(=O)[C@H](C)/C=C(\C)[C@@H](O)[C@@H](OC)C(=O)[C@H](C)C[C@H](C)/C=C/C=C/C=C/1C` [Compound 32, (1R,9S,12S,15R,16E,18R,19R,21R,23S,24E,26E,28E,30R,32S,35R)-1,18-dihydroxy-19-methoxy-30-(2-methoxyethoxy)-12-[(1R)-2-[(1S,3R,4R)-3-methoxy-4-[3-(4-methylpiperazin-1-yl)propoxy]cyclohexyl]-1-methyl-ethyl]-15,17,21,23,29,35-hexamethyl-11,36-dioxa-4-azatricyclo[30.3.1.04,9]hexatriaconta-16,24,26,28-tetraene-2,3,10,14,20-pentone]: the equilibrium dissociation constant (Kd) is 0.3 to 1 nM at FKBP12 and over 1100 nM in test [1]. For the same compound, the half-inhibitory concentration (IC50) at mTORC1 was over 1.5 nM.

Turning to `CO[C@@H]1C[C@H](C[C@@H](C)[C@@H]2CC(=O)[C@H](C)/C=C(\C)[C@@H](O)[C@@H](OC)C(=O)[C@H](C)C[C@H](C)/C=C/C=C/C=C(\C)[C@@H](OCCc3ccccc3)C[C@@H]3CC[C@@H](C)[C@@](O)(O3)C(=O)C(=O)N3CCCC[C@H]3C(=O)O2)CC[C@H]1O` [Compound 520, (1R,9S,12S,15R,16E,18R,19R,21R,23S,24E,26E,28E,30S,32S,35R)-1,18-dihydroxy-12-[(1R)-2-[(1S,3R,4R)-4-hydroxy-3-methoxy-cyclohexyl]-1-methyl-ethyl]-19-methoxy-15,17,21,23,29,35-hexamethyl-30-(2-phenylethoxy)-11,36-dioxa-4-azatricyclo[30.3.1.04,9]hexatriaconta-16,24,26,28-tetraene-2,3,10,14,20-pentone], the Kd was over 1 nM on FKBP12 and under 500 nM in test [1]. Moreover, the half-inhibitory concentration (IC50) on mTORC1 was under 0.8 nM.

Turning to `COCCO[C@@H]1C[C@@H]2CC[C@@H](C)[C@@](O)(O2)C(=O)C(=O)N2CCCC[C@H]2C(=O)O[C@H]([C@H](C)C[C@@H]2CC[C@@H](OCCO)[C@H](OC)C2)CC(=O)[C@H](C)/C=C(\C)[C@@H](O)[C@@H](OC)C(=O)[C@H](C)C[C@H](C)/C=C/C=C/C=C/1C` [Compound 40, (1R,9S,12S,15R,16E,18R,19R,21R,23S,24E,26E,28E,30R,32S,35R)-1,18-dihydroxy-12-[(1R)-2-[(1S,3R,4R)-4-(2-hydroxyethoxy)-3-methoxy-cyclohexyl]-1-methyl-ethyl]-19-methoxy-30-(2-methoxyethoxy)-15,17,21,23,29,35-hexamethyl-11,36-dioxa-4-azatricyclo[30.3.1.0^4,9]hexatriaconta-16,24,26,28-tetraene-2,3,10,14,20-pentone], the figures for the Kd (on FKBP12; in test [1]) were over 1 nM and 500 to 1100 nM, respectively. Further, at mTORC1, the IC50 was over 1.5 nM.

For `CO[C@@H]1C[C@H](C[C@@H](C)[C@@H]2CC(=O)[C@H](C)/C=C(\C)[C@@H](O)[C@@H](OC)C(=O)[C@H](C)C[C@H](C)/C=C/C=C/C=C(\C)[C@@H](OC3CC3)C[C@@H]3CC[C@@H](C)[C@@](O)(O3)C(=O)C(=O)N3CCCC[C@H]3C(=O)O2)CC[C@H]1O` [Compound 120, (1R,9S,12S,15R,16E,18R,19R,21R,23S,24E,26E,28E,30S,32S,35R)-30-(cyclopropoxy)-1,18-dihydroxy-12-[(1R)-2-[(1S,3R,4R)-4-hydroxy-3-methoxy-cyclohexyl]-1-methyl-ethyl]-19-methoxy-15,17,21,23,29,35-hexamethyl-11,36-dioxa-4-azatricyclo[30.3.1.04,9]hexatriaconta-16,24,26,28-tetraene-2,3,10,14,20-pentone], the Kd on FKBP12 was 0.3 to 1 nM; in test [1], under 500 nM. Besides, the IC50 at mTORC1 is under 0.8 nM.

As to `COCCO[C@H]1C[C@@H]2CC[C@@H](C)[C@@](O)(O2)C(=O)C(=O)N2CCCC[C@H]2C(=O)O[C@H]([C@H](C)C[C@@H]2CC[C@@H](O)[C@H](OC)C2)CC(=O)[C@H](C)/C=C(\C)[C@@H](O)[C@@H](OC)C(=O)[C@H](C)C[C@H](C)/C=C/C=C/C=C/1C` [Compound 529, (1R,9S,12S,15R,16E,18R,19R,21R,23S,24E,26E,28E,30S,32S,35R)-1,18-dihydroxy-12-[(1R)-2-[(1S,3R,4R)-4-hydroxy-3-methoxy-cyclohexyl]-1-methyl-ethyl]-19-methoxy-30-(2-methoxyethoxy)-15,17,21,23,29,35-hexamethyl-11,36-dioxa-4-azatricyclo[30.3.1.04,9]hexatriaconta-16,24,26,28-tetraene-2,3,10,14,20-pentone], the values for the dissociation constant Kd (at FKBP12; in test [1]) were under 0.3 nM and under 500 nM, respectively. Besides, at mTORC1, the concentration for half-maximal inhibition (IC50) is under 0.8 nM.
